Where a name gives a salt, the structure may show the parent alone.
Assays:
Assay type in all cases: cell-based, human
ImaR cells [1] = assay: flow cytometry analysis of the cell cycle, ImaR cells; settings: for proportion of cells in the G2/M phase: 24 hours, 82, 86, 112 at 2.5 μM, 15, 23, 191, 49 at 10 μM; for cells in phase G0/G1 / cells in the subG1 phase: 24 hours, imatinib 3 μM, 112 at 2.5 μM, 15, 23, 49 at 10 μM
Procedure: The x-axis of the graph of FIG. 9 corresponds to the quantity of DNA marked with propidium iodide while the y-axis corresponds to the number of cells. […] The nucleii are marked with propidium iodide, then the proportion of cells in the different phases of the cell cycle (subG1, G0/G1, S, G2/M) is determined.

mTOR pathway [2] = assay: western blot of 4E-BP1 phosphorylation (mTOR pathway), K562 cells; settings: 24 hours, imatinib 3 μM, AICAR 1 mM, 82, 112 at 2.5 μM, 15, 23, 191 at 10 μM
Procedure: (§1) The cells are lyzed and 30 μg of proteins are separated by SDS-PAGE (13% polyacrylamide gel) and analyzed by western blot with an antibody specific to the 4E-BP1 protein. The delayed gel migration observed reflects the level of phosphorylation of 4E-BP1.

ImaR cells [3] = assay: cell viability (XTT) of imatinib-resistant ImaR cells; settings: for efficacy in dose-response experiment (number of viable cells): 5, 10, 25 and 50 μM, compounds effective at concentrations as low as 5 μM; for viability at 500 µM / IC50: Homo sapiens, XTT; for viability at 500 µM: 0.5 mM, 24 hours, read-out: percentage of viable cells; for IC50: dose-response 5, 10, 25 and 50 μM, 24 or 48 hours, Example 1 (Table 1 codes)
Procedure: (§2) The K562 leukemic cell line is obtained from the pleural effusion of a patient with CML. This line is a good model for studying this disease. […] The K562 and ImaR cells are cultivated at 37° C. under 5% CO2 in an RPMI 1640 medium containing 5% fetal bovine serum and supplemented with sodium pyruvate and antibiotics (penicillin-streptomycin).
(§3) FIGS. 1 to 4 reflect the study of the cell viability.
(§4) After the addition of XTT reagent, the absorbance is measured at 490 nm.
as §4

mTOR pathway [4] = assay: western blot of 4E-BP1 phosphorylation (mTOR pathway), ImaR cells; settings: 24 hours, imatinib 3 μM, AICAR 1 mM, 82, 112 at 2.5 μM, 15, 23, 191 at 10 μM
Procedure: as §1

K562 cells [5] = assay: flow cytometry analysis of the cell cycle, K562 cells; settings: for proportion of cells in the G2/M phase: 24 hours, 82, 86, 112 at 2.5 μM, 15, 23, 191, 49 at 10 μM; for cells in phase G0/G1 / cells in the subG1 phase: 24 hours, imatinib 3 μM, 112 at 2.5 μM, 15, 23, 49 at 10 μM
Procedure: The x-axis of the graph of FIG. 9 corresponds to the quantity of DNA marked with propidium iodide while the y-axis corresponds to the number of cells. […] The nuclei are marked with propidium iodide, then the proportion of cells in the different phases of the cell cycle (subG1, G0/G1, S, G2/M) is determined.

K562 cells [6] = assay: western blot of apoptosis and autophagy markers, K562 cells; settings: for expression of p62/SQSTM1 / LC3 cleavage (LC3-I into LC3-II) / PARP cleavage (fragment at 85 kDa): K562, 24 hours; for expression of p62/SQSTM1 / LC3 cleavage (LC3-I into LC3-II): AICAR 1 mM; for expression of p62/SQSTM1: 82, 86, 112 at 2.5 μM, 15, 23, 191 at 10 μM; for LC3 cleavage (LC3-I into LC3-II): 82, 86 at 2.5 μM, 15, 23, 191, 49 at 10 μM; for type of programmed cell death induced: conclusion of Example 1, K562 and ImaR cells; for PARP cleavage (fragment at 85 kDa): imatinib 3 μM, 112 at 2.5 μM, 15, 23, 49 at 10 μM
Procedure: (§5) The cells are lyzed and 35 μg of proteins are separated by SDS-PAGE (12 or 14% polyacrylamide gel) and analyzed by western blot with antibodies specific to each of the markers.

K562 cells [7] = assay: cell viability (XTT) of imatinib-sensitive K562 cells; settings: for viability at 500 µM / IC50 / efficacy in dose-response experiment (number of viable cells): K562; for viability at 500 µM: 0.5 mM, 24 hours, read-out: percentage of viable cells; for viability at 500 µM / IC50: XTT; for IC50: dose-response 5, 10, 25 and 50 μM, 24 or 48 hours, Example 1 (Table 1 codes); for efficacy in dose-response experiment (number of viable cells): 5, 10, 25 and 50 μM, compounds effective at concentrations as low as 5 μM
Procedure: as §2, §3, §4, §4, §4
After adding XTT reagent, the absorbance is measured at 490 nm.

cathepsin-B [8] = assay: cathepsin-B activity (z-RR-AMC) in ImaR cells; settings: 24 hours, AICAR 1 mM, 82, 112 at 2.5 μM, 15, 23, 191 at 10 μM
Procedure: (§6) The cells are lyzed and 5 μg of proteins are placed in the presence of z-RR-AMC in a 96-well plate. The fluorescence emission at 460 nm resulting from the release of AMC is then recorded.

cathepsin-B [9] = assay: cathepsin-B activity (z-RR-AMC) in K562 cells; settings: 24 hours, AICAR 1 mM, 82, 112 at 2.5 μM, 15, 23, 191 at 10 μM
Procedure: as §6

ImaR cells [10] = assay: western blot of apoptosis and autophagy markers, ImaR cells; settings: 24 hours; for expression of p62/SQSTM1: AICAR 1 mM, 82, 86, 112 at 2.5 μM, 15, 23, 191 at 10 μM; for LC3 cleavage (LC3-I into LC3-II): AICAR 1 mM, 82, 86 at 2.5 μM, 15, 23, 191, 49 at 10 μM; for PARP cleavage (fragment at 85 kDa): imatinib 3 μM, 112 at 2.5 μM, 15, 23, 49 at 10 μM
Procedure: as §5

caspase-3 = caspase-3 activity (Ac-DEVD-AMC) in ImaR cells; settings: 24 hours, imatinib 3 μM, AICAR 1 mM, 112 at 2.5 μM, 15, 23, 49 at 10 μM
Procedure: The cells are lyzed and 10 μg of proteins are placed in the presence of Ac-DEVD-AMC in a 96-well plate. The fluorescence emission at 460 nm resulting from the release of AMC is then recorded.

caspase-9 [11] = assay: caspase-9 activity (Ac-LEHD-AMC) in K562 cells; settings: for pathway relaying the induced apoptosis: conclusion of Example 1, K562 and ImaR cells; for caspase-9 activity: K562, 24 hours, imatinib 3 μM, 112 2.5 μM, 15 and 23 10 μM
Procedure: (§7) The cells are lyzed and the caspase-9 activities are measured using 10 μg of proteins and Ac-LEHD-AMC. The fluorescence emission at 460 nm resulting from the release of AMC is then recorded.

caspase-9 [12] = assay: caspase-9 activity (Ac-LEHD-AMC) in ImaR cells; settings: 24 hours, imatinib 3 μM, 112 2.5 μM, 15 and 23 10 μM
Procedure: as §7

Structure (SMILES)	proportion of cells in the G2/M phase (ImaR cells [1])	phosphorylation of 4E-BP1 (mTOR pathway [2])	efficacy in dose-response experiment (number of viable cells) (ImaR cells [3])	viability at 500 µM (ImaR cells [3]) [%]	IC50 (ImaR cells [3]) [µM]	proportion of cells in the G2/M phase (K562 cells [5])	expression of p62/SQSTM1 (K562 cells [6])	LC3 cleavage (LC3-I into LC3-II) (K562 cells [6])	type of programmed cell death induced (K562 cells [6])	viability at 500 µM (K562 cells [7]; Homo sapiens) [%]	IC50 (K562 cells [7]; Homo sapiens) [µM]	efficacy in dose-response experiment (number of viable cells) (K562 cells [7])	increase in the cathepsin-B activity (factor) (cathepsin-B [8])	increase in the cathepsin-B activity (factor) (cathepsin-B [9])	expression of p62/SQSTM1 (ImaR cells [10])	LC3 cleavage (LC3-I into LC3-II) (ImaR cells [10])	cells in phase G0/G1 (ImaR cells [1])	cells in the subG1 phase (ImaR cells [1])	cells in phase G0/G1 (K562 cells [5])	cells in the subG1 phase (K562 cells [5])	also measured
CCOC(=O)c1nnn([C@@H]2O[C@H](COC(C)=O)[C@@H](OC(C)=O)[C@H]2OC(C)=O)c1-c1cccs1 [Compound 82, 1′-(4-ethoxycarbonyl-5-(2-thienyl)-[1,2,3]-triazol-1-yl)-2′,3′,5′-tri-O-acetyl-β-D-ribofuranose]	increase	total reduction	particularly effective	< 10	~2.5	increase	increase in the expression	cleaved	autophagy alone	< 10	~2.5	particularly effective	around 2	around 2	increase in the expression	cleaved					phosphorylation of 4E-BP1 (mTOR pathway [4]): total reduction
CCOC(=O)c1nnn(C2OC(COC(C)=O)C(OC(C)=O)C(OC(C)=O)C2OC(C)=O)c1I [Compound 191, 1′-(4-ethoxycarbonyl-5-iodo-[1,2,3]-triazol-1-yl)-2′,3′,4′,6′-tetra-O-acetyl-β-D-glucopyranose]			particularly effective	< 10	~10		increase in the expression	cleaved	autophagy alone	< 10	~10	particularly effective	around 2	around 2	increase in the expression	cleaved					
CCOC(=O)C#Cc1c(C(=O)OCC)nnn1[C@@H]1O[C@H](COC(C)=O)[C@@H](OC(C)=O)[C@H]1OC(C)=O [Compound 49, 1′-(4-ethoxycarbonyl-5-ethyl propiolate-[1,2,3]-triazol-1-yl)-2′,3′,5′-tri-O-acetyl-β-D-ribofuranose]	increase		particularly effective	< 10	~10	increase		cleaved	combination of the two types of mechanisms	< 10	~10	particularly effective				cleaved	reduction	very pronounced accumulation	reduction	very pronounced accumulation	increase in the caspase-3 activity (factor with respect to the control) (caspase-3): increase; PARP cleavage (fragment at 85 kDa) (K562 cells [6]): appearance of the characteristic cleavage fragment at 85 kDa; pathway relaying the induced apoptosis (caspase-9 [11]): intrinsic pathway; PARP cleavage (fragment at 85 kDa) (ImaR cells [10]): appearance of the characteristic cleavage fragment at 85 kDa
Cc1ccc(NC(=O)c2ccc(CN3CCN(C)CC3)cc2)cc1Nc1nccc(-c2cccnc2)n1 [imatinib, imatinib mesylate, reference compound]		totally inhibits															not observed	not observed	increase	small fraction of cells is also accumulated	cell viability (ImaR cells [3]; imatinib 1 μM, 48 hours): affected only slightly; cytotoxicity at 1 µM (K562 cells [7]; Homo sapiens, K562, 48 h, read-out: cell viability loss): > 50%; caspase-9 activity (caspase-9 [11]): strong increase; caspase-9 activity (caspase-9 [12]): not the case
CCOC(=O)C#Cc1c(C(=O)OCC)nnn1Cc1ccc(C)cc1 [Compound 112, 1-(4-methylbenzyl)-4-ethoxycarbonyl-5-ethyl propiolate-1,2,3-triazole]			particularly effective	< 10	~2.5		increase in the expression		apoptosis alone	< 10	~2.5	particularly effective			increase in the expression		reduction	very pronounced accumulation	reduction	very pronounced accumulation	PARP cleavage (fragment at 85 kDa) (K562 cells [6]): appearance of the characteristic cleavage fragment at 85 kDa; caspase-9 activity (caspase-9 [11]): activation; pathway relaying the induced apoptosis (caspase-9 [11]): intrinsic pathway; caspase-9 activity (caspase-9 [12]): activation; PARP cleavage (fragment at 85 kDa) (ImaR cells [10]): appearance of the characteristic cleavage fragment at 85 kDa
